Legend:
[1] = test system: Puccinia triticina; assay: Wheat brown rust (PUCCRT) disease control on wheat seedlings; type: in vivo; set-up: key to PUCCRT 3DC, HV activity at 100 ppm (% control rating) / PUCCRT disease control, 3DC / PUCCRT 1DP disease control rating, HV activity / PUCCRT 3DC disease control rating, HV activity / PUCCRT 3DC, LV activity at 125.1 g/H (% Control rating) / PUCCRT 1DP, LV activity at 125.1 g/H (% Control rating) / PUCCRT 3DC disease control rating, LV activity at 125.1 g/H / PUCCRT 1DP disease control rating, LV activity at 125.1 g/H / PUCCRT 3DC disease control rating, HV activity at 100 ppm / PUCCRT 1DP disease control rating, HV activity at 100 ppm / HV activity at 100 ppm PUCCRT 3DC (disease control rating) / LV activity at 125.1 g/H PUCCRT 1DP (disease control rating) / LV activity at 125.1 g/H PUCCRT 3DC (disease control rating): A: > 80; B: ≤ 80; C: Not Tested; D: No Activity Observed in the Reported Assay; conditions: for PUCCRT 1DP disease control rating, HV activity at 100 ppm / PUCCRT 3DC disease control rating, HV activity at 100 ppm: high volume application; for PUCCRT 1DP disease control rating, HV activity at 100 ppm / PUCCRT 1DP disease control rating, LV activity at 125.1 g/H: 1 day protectant; for PUCCRT 3DC disease control rating, HV activity at 100 ppm / PUCCRT 3DC disease control rating, LV activity at 125.1 g/H: 3 day curative; for PUCCRT 1DP, LV activity at 125.1 g/H (% Control rating) / PUCCRT 3DC, LV activity at 125.1 g/H (% Control rating) / PUCCRT 1DP disease control rating, LV activity at 125.1 g/H / PUCCRT 3DC disease control rating, LV activity at 125.1 g/H: low volume application; for PUCCRT 1DP, LV activity at 125.1 g/H (% Control rating) / PUCCRT 1DP disease control rating, HV activity: 1 Day Protectant; for PUCCRT 3DC, LV activity at 125.1 g/H (% Control rating) / PUCCRT 3DC disease control rating, HV activity: 3 Day Curative; for PUCCRT 1DP disease control rating, HV activity / PUCCRT 3DC disease control rating, HV activity: HV application at 100 ppm, wheat brown rust
[2] = test system: Zymoseptoria tritici; assay: Leaf blotch of wheat (SEPTTR) disease control on wheat seedlings; type: in vivo; set-up: key to SEPTTR 1DP, HV activity at 100 ppm (% control rating) / SEPTTR 3DC, HV activity at 100 ppm (% control rating) / SEPTTR disease control, 1DP / SEPTTR disease control, 3DC / SEPTTR 1DP disease control rating, HV activity / SEPTTR 3DC disease control rating, HV activity / SEPTTR 3DC, LV activity at 125.1 g/H (% Control rating) / SEPTTR 1DP, LV activity at 125.1 g/H (% Control rating) / SEPTTR 1DP disease control rating, LV activity at 125.1 g/H / SEPTTR 3DC disease control rating, LV activity at 125.1 g/H / SEPTTR 3DC disease control rating, HV activity at 100 ppm / SEPTTR 1DP disease control rating, HV activity at 100 ppm / HV activity at 100 ppm SEPTTR 3DC (disease control rating) / HV activity at 100 ppm SEPTTR 1DP (disease control rating) / LV activity at 125.1 g/H SEPTTR 1DP (disease control rating) / LV activity at 125.1 g/H SEPTTR 3DC (disease control rating): A: > 80; B: ≤ 80; C: Not Tested; D: No Activity Observed in the Reported Assay; conditions: for SEPTTR 1DP disease control rating, HV activity at 100 ppm / SEPTTR 3DC disease control rating, HV activity at 100 ppm: high volume application; for SEPTTR 1DP disease control rating, HV activity at 100 ppm / SEPTTR 1DP disease control rating, LV activity at 125.1 g/H: 1 day protectant; for SEPTTR 3DC disease control rating, HV activity at 100 ppm / SEPTTR 3DC disease control rating, LV activity at 125.1 g/H: 3 day curative; for SEPTTR 1DP, LV activity at 125.1 g/H (% Control rating) / SEPTTR 3DC, LV activity at 125.1 g/H (% Control rating) / SEPTTR 1DP disease control rating, LV activity at 125.1 g/H / SEPTTR 3DC disease control rating, LV activity at 125.1 g/H: low volume application; for SEPTTR 1DP, LV activity at 125.1 g/H (% Control rating) / SEPTTR 1DP disease control rating, HV activity: 1 Day Protectant; for SEPTTR 3DC, LV activity at 125.1 g/H (% Control rating) / SEPTTR 3DC disease control rating, HV activity: 3 Day Curative; for SEPTTR 1DP disease control rating, HV activity / SEPTTR 3DC disease control rating, HV activity: HV application at 100 ppm, wheat leaf blotch

SMILES	PUCCRT 1DP disease control rating, HV activity at 100 ppm [1]	PUCCRT 3DC disease control rating, HV activity at 100 ppm [1]	SEPTTR 1DP disease control rating, HV activity at 100 ppm [2]	SEPTTR 3DC disease control rating, HV activity at 100 ppm [2]	PUCCRT 1DP disease control rating, HV activity [1]	PUCCRT 3DC disease control rating, HV activity [1]	SEPTTR 1DP disease control rating, HV activity [2]	SEPTTR 3DC disease control rating, HV activity [2]	further results
COc1ccnc(C(=O)NC(C)C(=O)OC(C)C(OCC(C)C)c2ccccc2)c1O (stereo not shown) [Cmpd 819]	D	B (≤ 80)	B (≤ 80)	D					
CC[C@H](NC(=O)c1nccc(OC)c1OC(C)=O)C(=O)O[C@@H](C)[C@H](Oc1cc(F)cc(Cl)c1)c1ccccc1 [Cmpd 644]									PUCCRT 1DP, LV activity at 125.1 g/H (% Control rating) [1]: A (> 80); PUCCRT 3DC, LV activity at 125.1 g/H (% Control rating) [1]: B (≤ 80); SEPTTR 1DP, LV activity at 125.1 g/H (% Control rating) [2]: A (> 80); SEPTTR 3DC, LV activity at 125.1 g/H (% Control rating) [2]: A (> 80)
CCC(CC)[C@@H](Oc1cccc(F)c1)[C@H](C)OC(=O)[C@@H](NC(=O)c1nccc(OC)c1O)C(C)C [Cmpd 404]					B (≤ 80)	D	A (> 80)	D	
COc1ccnc(C(=O)N[C@@H](C)C(=O)O[C@@H](C)[C@H](Oc2cccc(F)c2)c2cccc(-c3ccccc3)c2)c1OCOC(C)=O [Cmpd 874]									PUCCRT 1DP disease control rating, LV activity at 125.1 g/H [1]: A (> 80); PUCCRT 3DC disease control rating, LV activity at 125.1 g/H [1]: B (≤ 80); SEPTTR 1DP disease control rating, LV activity at 125.1 g/H [2]: A (> 80); SEPTTR 3DC disease control rating, LV activity at 125.1 g/H [2]: B (≤ 80)
COc1ccnc(C(=O)NC(C)C(=O)OC(C)C(Oc2cccc(-c3ccccc3)c2)C(C)C)c1O (stereo not shown) [Cmpd 389]					A (> 80)	D	B (≤ 80)	B (≤ 80)	
COc1ccnc(C(=O)NC(C(=O)OC(C)C(Oc2cccc3ccccc23)C(C)C)C(C)C)c1O (stereo not shown) [Cmpd 400]					A (> 80)	B (≤ 80)	B (≤ 80)	B (≤ 80)	
COc1ccnc(C(=O)NC(C(=O)OC(C)C(Oc2ccccc2)C(C)C)C(F)(F)F)c1O (mixture of isomers) [Cmpd 1018]	A (> 80)	A (> 80)	A (> 80)	D					
COc1ccnc(C(=O)N[C@@H](C)C(=O)O[C@@H](C)[C@H](Oc2ccc(-c3ccccc3)cc2)C(C)C)c1OCOC(C)=O [Cmpd 612]									PUCCRT 1DP, LV activity at 125.1 g/H (% Control rating) [1]: A (> 80); PUCCRT 3DC, LV activity at 125.1 g/H (% Control rating) [1]: B (≤ 80); SEPTTR 1DP, LV activity at 125.1 g/H (% Control rating) [2]: D; SEPTTR 3DC, LV activity at 125.1 g/H (% Control rating) [2]: B (≤ 80)
CCC(CC)C(Oc1ccc(Cl)cc1Cl)C(C)OC(=O)C(C)NC(=O)c1nccc(OC)c1OC(C)=O (stereo not shown) [Cmpd 675]									PUCCRT 1DP disease control rating, LV activity at 125.1 g/H [1]: A (> 80); PUCCRT 3DC disease control rating, LV activity at 125.1 g/H [1]: B (≤ 80); SEPTTR 1DP disease control rating, LV activity at 125.1 g/H [2]: A (> 80); SEPTTR 3DC disease control rating, LV activity at 125.1 g/H [2]: A (> 80)
COc1cccc(O[C@H](C2CC2)[C@H](C)OC(=O)[C@H](C)NC(=O)c2nccc(OC)c2O)c1 [Cmpd 1014]	A (> 80)	A (> 80)	B (≤ 80)	B (≤ 80)					
